Where a name gives a salt, the structure may show the parent alone.

This test deals with T1, CHOK1 cells engineered to overexpress human CCR2 (Homo sapiens, UniProt P41597).
T1 construct: expressed in transfected cells; host or cells: CHOK1 cells
Description: Antibody dependent cellular cytotoxicity (ADCC) reporter assay (Example 199). The test is classed as cell-based. As to conditions: with anti-cotinine antibody SEQ ID NO: 11/12; CHOK1-human CCR2 target cells, Jurkat FcγRIIIa NFAT-luciferase reporter cells; 12-18 hours; read-out: ADCC Reporter Assay pEC50 (converted). As to the method:
An antibody dependent cellular cytoxicity reporter assay was conducted using the following four assay components: (i) ARM compound of Formula (I) targeting CCR2 (concentrations ranging from 1 pM to 10 μM) (ii) anti-cotinine antibody having a heavy chain sequence of SEQ ID NO: 11 and a light chain sequence of SEQ ID NO: 12 (rabbit variable region with human IgG1 Fc domain containing a DE mutation (S239D/1332E)) (concentrations ranging from 0.01 μg/mL to 200 μg/mL); (iii) target cells: CHOK1 cells engineered to overexpress either human CCR2 (typically 1000-20,000 cells per well) and (iv) reporter cells: Jurkat cells engineered to express FcγRIIIa with the reporter gene luciferase under the control of the NFAT promoter (typically 3000-75,000 cells per well). Reagents were combined in a final volume of 20 μL in a 384-well tissue culture treated plate. All four assay components were incubated together for about 12-18 hours. Thereafter, BioGlo Detection reagent (Promega) was added to the wells to lyse the cells and provide a substrate for the luciferase reporter protein. Luminescence signal was measured on a microplate reader and signal:background was calculated by dividing the signal of a test well by the signal obtained when no heterobivalent compound of Formula (I) was added. EC50 calculations were done using Graphpad Prism Software, specifically a nonlinear regression curve fit (Y=Bottom+(Top−Bottom)/(1+10^((Log EC50−X)*HillSlope))).
ARMs compounds of Formula (I) of the invention were tested for ADCC activity in the above assay in or more experimental runs and the results are shown in Table 3 below. Potency of the compounds of Formula (I) of the invention is reported as a pEC50 value. The pEC50 value is the negative log of the EC50 value, wherein the EC50 value is the half maximal effective concentration measured in molar (M). For compounds tested in more than one experimental run, the pEC50 value is reported as an average.
(In general: Reporter assays use an easily measured gene product as a stand-in for the process of interest.)
With `CC(C)N(C)[C@@H]1CC[C@H](N2CC[C@H](Nc3ncnc4ccc(C(F)(F)F)cc34)C2=O)[C@H](NC(=O)[C@H]2CC[C@H](N3CCN(CCOCCOCCNC(=O)[C@H]4CC(=O)N(C)[C@@H]4c4cccnc4)CC3)CC2)C1` [compound 190], the EC50 was 2.51 nM.

`CC(C)N(C)[C@@H]1CC[C@H](N2CC[C@H](Nc3ncnc4ccc(C(F)(F)F)cc34)C2=O)[C@H](NC(=O)[C@H]2C[C@H](NC(=O)CCO[C@H]3CC[C@@H](OCCNC(=O)[C@H]4CC(=O)N(C)[C@@H]4c4cccnc4)CC3)C2)C1` [Example 116]: the EC50 was 5.01 nM.

Regarding `CC(C)N(C)[C@@H]1CC[C@H](N2CC[C@H](Nc3ncnc4ccc(C(F)(F)F)cc34)C2=O)[C@H](NC(=O)[C@H]2CC[C@H](N3CCN(C(=O)CCOCCOCCNC(=O)[C@H]4CC(=O)N(C)[C@@H]4c4cccnc4)CC3)CC2)C1` [Example 96, (2S,3S)-N-(2-(2-(3-(4-((1R,4r)-4-(((1R,2S,5R)-5-(Isopropyl(methyl)amino)-2-((S)-2-oxo-3-((6-(trifluoromethyl)quinazolin-4-yl)amino)pyrrolidin-1-yl)cyclohexyl)carbamoyl)cyclohexyl)piperazin-1-yl)-3-oxopropoxy)ethoxy)ethyl)-1-methyl-5-oxo-2-(pyridin-3-yl)pyrrolidine-3-carboxamide], the EC50 was 6.31 nM.

As for `CC(C)N(C)[C@@H]1CC[C@H](N2CC[C@H](Nc3ncnc4ccc(C(F)(F)F)cc34)C2=O)[C@H](NC(=O)C2CCN(CCCCCCCCNC(=O)[C@H]3CC(=O)N(C)[C@@H]3c3cccnc3)CC2)C1` [Example 144, N-((1R,2S,5R)-5-(Isopropyl(methyl)amino)-2-((S)-2-oxo-3-((6-(trifluoromethyl)quinazolin-4-yl)amino)pyrrolidin-1-yl)cyclohexyl)-1-(8-((2S,3S)-1-methyl-5-oxo-2-(pyridin-3-yl)pyrrolidine-3-carboxamido)octyl)piperidine-4-carboxamide, 3Formic acid salt], the EC50 was 3.16 nM.

Turning to `CC(C)N(C)[C@@H]1CC[C@H](N2CC[C@H](Nc3ncnc4ccc(C(F)(F)F)cc34)C2=O)[C@H](NC(=O)c2cc(OCCOCCOCCOCCNC(=O)[C@H]3CC(=O)N(C)[C@@H]3c3cccnc3)ccn2)C1` [Example 89], the EC50 is 6.31 nM.

For `CC(C)N(C)[C@@H]1CC[C@H](N2CC[C@H](Nc3ncnc4ccc(C(F)(F)F)cc34)C2=O)[C@H](NC(=O)c2ccnc(NCCOCCOCCOCCOCCNC(=O)[C@H]3CC(=O)N(C)[C@@H]3c3cccnc3)c2)C1` [Example 126], the EC50 is 1.58 nM.

For `CC(C)N(C)[C@@H]1CC[C@H](N2CC[C@H](Nc3ncnc4ccc(C(F)(F)F)cc34)C2=O)[C@H](NC(=O)[C@H]2CC[C@@H](N3CCC(C(=O)NCCOCCOCCNC(=O)[C@H]4CC(=O)N(C)[C@@H]4c4cccnc4)CC3)CC2)C1` [Example 134], the EC50 is 0.0631 nM.

Turning to `CC(C)N(C)[C@@H]1CC[C@H](N2CC[C@H](Nc3ncnc4ccc(C(F)(F)F)cc34)C2=O)[C@H](NC(=O)CCc2ccc(C3CCN(C(=O)CCCCCNC(=O)[C@H]4CC(=O)N(C)[C@@H]4c4cccnc4)CC3)cc2)C1` [Example 86, (2S,3S)-N-(6-(4-(4-(3-(((1R,2S,5R)-5-(Isopropyl(methyl)amino)-2-((S)-2-oxo-3-((6-(trifluoromethyl)quinazolin-4-yl)amino)pyrrolidin-1-yl)cyclohexyl)amino)-3-oxopropyl)phenyl)piperidin-1-yl)-6-oxohexyl)-1-methyl-5-oxo-2-(pyridin-3-yl)pyrrolidine-3-carboxamide], the EC50 is 7.94 nM.

Regarding `CC(C)N(C)[C@@H]1CC[C@H](N2CC[C@H](Nc3ncnc4ccc(C(F)(F)F)cc34)C2=O)[C@H](NC(=O)COCCNC(=O)CNC(=O)COCCOCCNC(=O)[C@H]2CC(=O)N(C)[C@@H]2c2cccnc2)C1` [Example 78], the EC50 is 5.52 nM.

With `CC(C)N(C)[C@@H]1CC[C@H](N2CC[C@H](Nc3ncnc4ccc(C(F)(F)F)cc34)C2=O)[C@H](NC(=O)C2CCN(C3CCN(C(=O)CCCCCNC(=O)[C@H]4CC(=O)N(C)[C@@H]4c4cccnc4)CC3)CC2)C1` [Example 87], the EC50 is 3.98 nM.

Take `CC(C)N(C)[C@@H]1CC[C@H](N2CC[C@H](Nc3ncnc4ccc(C(F)(F)F)cc34)C2=O)[C@H](NC(=O)c2cc(OCCOCCOCCOCCOCCNC(=O)[C@H]3CC(=O)N(C)[C@@H]3c3cccnc3)ccn2)C1` [Example 88, N-((1R,2S,5R)-5-(Isopropyl(methyl)amino)-2-((S)-2-oxo-3-((6-(trifluoromethyl)quinazolin-4-yl)amino)pyrrolidin-1-yl)cyclohexyl)-4-((1-((2S,3S)-1-methyl-5-oxo-2-(pyridin-3-yl)pyrrolidin-3-yl)-1-oxo-5,8,11,14-tetraoxa-2-azahexadecan-16-yl)oxy)picolinamide]: the EC50 was 2.51 nM.

Turning to `CC(C)N(C)[C@@H]1CC[C@H](N2CC[C@H](Nc3ncnc4ccc(C(F)(F)F)cc34)C2=O)[C@H](NC(=O)COCCCCCCCCCOCCCCCCCNC(=O)[C@H]2CC(=O)N(C)[C@@H]2c2cccnc2)C1` [Example 153, (2S,3S)-N-(7-((9-(2-(((1R,2S,5R)-5-(Isopropyl(methyl)amino)-2-((S)-2-oxo-3-((6-(trifluoromethyl)quinazolin-4-yl)amino)pyrrolidin-1-yl)cyclohexyl)amino)-2-oxoethoxy)nonyl)oxy)heptyl)-1-methyl-5-oxo-2-(pyridin-3-yl)pyrrolidine-3-carboxamide], the EC50 was 2.51 nM.

Consider `CC(C)N(C)[C@@H]1CC[C@H](N2CC[C@H](Nc3ncnc4ccc(C(F)(F)F)cc34)C2=O)[C@H](NC(=O)[C@H]2CC[C@H](N3CCN(C4CC(CCNC(=O)[C@H]5CC(=O)N(C)[C@@H]5c5cccnc5)C4)CC3)CC2)C1` (stereo partly drawn) [Example 97, (2S,3S)-N-(2-(3-(4-((1R,4S)-4-(((1R,2S,5R)-5-(Isopropyl(methyl)amino)-2-((S)-2-oxo-3-((6-(trifluoromethyl)quinazolin-4-yl)amino)pyrrolidin-1-yl)cyclohexyl)carbamoyl)cyclohexyl)piperazin-1-yl)cyclobutyl)ethyl)-1-methyl-5-oxo-2-(pyridin-3-yl)pyrrolidine-3-carboxamide], for which the EC50 is 6.31 nM.

Consider `CC(C)N(C)[C@@H]1CC[C@H](N2CC[C@H](Nc3ncnc4ccc(C(F)(F)F)cc34)C2=O)[C@H](NC(=O)[C@H]2CC[C@@H](C(=O)NCCCN3CCN(CCCNC(=O)[C@H]4CC(=O)N(C)[C@@H]4c4cccnc4)CC3)CC2)C1` [Example 150, (1 s,4S)-N^1-((1R,2S,5R)-5-(Isopropyl(methyl)amino)-2-((S)-2-oxo-3-((6-(trifluoromethyl)quinazolin-4-yl)amino)pyrrolidin-1-yl)cyclohexyl)-N^4-(3-(4-(3-((2S,3S)-1-methyl-5-oxo-2-(pyridin-3-yl)pyrrolidine-3-carboxamido)propyl)piperazin-1-yl)propyl)cyclohexane-1,4-dicarboxamide], for which the EC50 was 3.16 nM.

For the compound `CC(C)N(C)[C@@H]1CC[C@H](N2CC[C@H](Nc3ncnc4ccc(C(F)(F)F)cc34)C2=O)[C@H](NC(=O)c2ccnc(CCCOCCOCCOCCOCCNC(=O)[C@H]3CC(=O)N(C)[C@@H]3c3cccnc3)c2)C1` [Example 160, N-((1R,2S,5R)-5-(Isopropyl(methyl)amino)-2-((S)-2-oxo-3-((6-(trifluoromethyl)quinazolin-4-yl)amino)pyrrolidin-1-yl)cyclohexyl)-2-(1-((2S,3S)-1-methyl-5-oxo-2-(pyridin-3-yl)pyrrolidin-3-yl)-1-oxo-5,8,11,14-tetraoxa-2-azaheptadecan-17-yl)isonicotinamide, 3Formic acid salt], the EC50 was 2 nM.

As for `CC(C)N(C)[C@@H]1CC[C@H](N2CC[C@H](Nc3ncnc4ccc(C(F)(F)F)cc34)C2=O)[C@H](NC(=O)CCCCOCCCCCCCCOCCCCNC(=O)[C@H]2CC(=O)N(C)[C@@H]2c2cccnc2)C1` [Example 161, (2S,3S)-N-(4-((8-((5-(((1R,2S,5R)-5-(Isopropyl(methyl)amino)-2-((S)-2-oxo-3-((6-(trifluoromethyl)quinazolin-4-yl)amino)pyrrolidin-1-yl)cyclohexyl)amino)-5-oxopentyl)oxy)octyl)oxy)butyl)-1-methyl-5-oxo-2-(pyridin-3-yl)pyrrolidine-3-carboxamide], the EC50 was 1.58 nM.

Turning to `CC(C)N(C)[C@@H]1CC[C@H](N2CC[C@H](Nc3ncnc4ccc(C(F)(F)F)cc34)C2=O)[C@H](NC(=O)[C@H]2CC[C@@H](N3CCC(C(=O)NCCOCCOCCNC(=O)[C@H]4CC(=O)N(C)[C@@H]4c4cccnc4)C(F)(F)C3)CC2)C1` (stereo partly drawn) [Example 132], the EC50 was 3.16 nM.

Turning to `CC(C)N(C)[C@@H]1CC[C@H](N2CC[C@H](Nc3ncnc4ccc(C(F)(F)F)cc34)C2=O)[C@H](NC(=O)c2cc(NCCOCCOCCOCCOCCNC(=O)[C@H]3CC(=O)N(C)[C@@H]3c3cccnc3)ncn2)C1` [Example 127], the EC50 is 1 nM.

The record behind these values is patent US20250136722A1, “CYTOTOXICITY TARGETING CHIMERAS” (GLAXOSMITHKLINE INTELLECTUAL PROPERTY DEVELOPMENT LIMITED, priority 2021, published 2025).
